One assay deals with T1, 14-3-3σ (Homo sapiens).
T1 construct: 14-3-3ς (UniProt P63104-1; residues 1–245); 8-His tag with TEV protease cleavage site (N); made in house; host or cells: E. coli C41 (DE3)
In words: SPR, PEAK tandem peptides binding to immobilised 14-3-3σ. To be noted: peptide analyte over amine-coupled 14-3-3σ (CM5); Biacore S200, HBS-TP pH 7.4, 20 °C; steady-state 1:1 fit; mean ± S.E.M.; read-out: SPR KD, 14-3-3σ (sigma). The method, then: (§1) Purified […]3 was diluted to 5 μg ml^-1 in 10 mM sodium acetate pH 4.0 and amine coupled at 25 °C to a Series S CM5 sensor chip, in HBS-N running buffer (20 mM HEPES pH 7.4, 150 mM NaCl) to a final immobilization level of 1100-1400 response units (RU), followed by surface deactivation using 1 M ethanolamine. A blank activation/deactivation was used for the reference surface. […] Samples were injected in a multi-cycle run (flow rate 30 μl min^-1, contact time of 60 s, dissociation 120 s) without regeneration. Sensorgrams were double referenced, and steady-state binding data fitted using a 1:1 binding model using Biacore S200 Evaluation Software (Cytiva, v. 1.1). […] Representative sensorgrams and fitted dissociation constant (KD) values, depicted as mean ± S.E.M.
(In general: SPR reads the build-up and loss of mass on a sensor chip optically.)

In another assay the target is T2, 14-3-3η (Homo sapiens, UniProt Q04917).
T2 construct: 14-3-3η (UniProt Q04917-1; residues 1–246); 8-His tag with TEV protease cleavage site (N); made in house; host or cells: E. coli C41 (DE3)
T2 sequence (Q04917 1-246): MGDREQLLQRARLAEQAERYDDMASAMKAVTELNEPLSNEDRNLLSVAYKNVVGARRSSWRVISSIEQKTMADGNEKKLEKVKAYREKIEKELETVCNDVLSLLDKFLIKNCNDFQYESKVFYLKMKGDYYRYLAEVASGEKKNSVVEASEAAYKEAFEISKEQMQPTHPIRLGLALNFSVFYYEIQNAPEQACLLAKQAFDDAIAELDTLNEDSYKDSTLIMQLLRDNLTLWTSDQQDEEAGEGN
The assay is described as follows: SPR, PEAK tandem peptides binding to immobilised 14-3-3η. To be noted: peptide analyte over amine-coupled 14-3-3η (CM5); Biacore S200, HBS-TP pH 7.4, 20 °C; steady-state 1:1 fit; mean ± S.E.M.; read-out: SPR KD, 14-3-3η (eta). The procedure:
as §1

A further assay has as its target T3, 14-3-3γ (Homo sapiens, UniProt P61981).
T3 construct: 14-3-3γ (UniProt P61981-1; residues 1–247); 8-His tag with TEV protease cleavage site (N); made in house; host or cells: E. coli C41 (DE3)
T3 sequence (P61981 1-247): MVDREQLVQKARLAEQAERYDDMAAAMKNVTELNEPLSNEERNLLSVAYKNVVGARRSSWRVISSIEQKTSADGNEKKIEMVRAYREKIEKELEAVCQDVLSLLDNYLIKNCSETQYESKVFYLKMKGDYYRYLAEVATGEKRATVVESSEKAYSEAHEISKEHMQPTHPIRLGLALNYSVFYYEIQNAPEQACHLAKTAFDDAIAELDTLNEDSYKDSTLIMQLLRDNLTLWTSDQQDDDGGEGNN
The assay is described as follows: SPR, PEAK peptides binding to immobilised 14-3-3γ. The conditions noted are these: peptide analyte over amine-coupled 14-3-3γ (CM5); Biacore S200, HBS-TP pH 7.4, 20 °C; steady-state 1:1 fit; mean ± S.E.M.; read-out: SPR KD, 14-3-3γ (gamma). The procedure: as §1

For another assay, the target named is T4, 14-3-3ε (Homo sapiens, UniProt P62258).
T4 construct: 14-3-3ε (UniProt P62258-1; residues 1–255); 8-His tag with TEV protease cleavage site (N); made in house; host or cells: E. coli C41 (DE3)
T4 sequence (P62258 1-255): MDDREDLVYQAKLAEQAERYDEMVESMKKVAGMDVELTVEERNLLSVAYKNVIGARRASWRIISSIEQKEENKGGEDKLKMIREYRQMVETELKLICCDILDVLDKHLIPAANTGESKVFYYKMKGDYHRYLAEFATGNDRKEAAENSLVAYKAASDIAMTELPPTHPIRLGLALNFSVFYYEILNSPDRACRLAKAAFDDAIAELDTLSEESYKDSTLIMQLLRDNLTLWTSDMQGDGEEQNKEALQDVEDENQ
The assay is described as follows: SPR, PEAK tandem peptides binding to immobilised 14-3-3ε. The conditions noted are these: peptide analyte over amine-coupled 14-3-3ε (CM5); Biacore S200, HBS-TP pH 7.4, 20 °C; steady-state 1:1 fit; mean ± S.E.M.; read-out: SPR KD, 14-3-3ε (epsilon). The method, then: Purified […]3 was diluted to 5 μg ml^-1 in 10 mM sodium acetate pH 4.0 and amine coupled at 25 °C to a Series S CM5 sensor chip, in HBS-N running buffer (20 mM HEPES pH 7.4, 150 mM NaCl) to a final immobilization level of 1100-1400 response units (RU), followed by surface deactivation using 1 M ethanolamine. A blank activation/deactivation was used for the reference surface. […] PEAK PRM peptides: […] Samples were injected in a multi-cycle run (flow rate 30 μl min^-1, contact time of 60 s, dissociation 120 s) without regeneration. Sensorgrams were double referenced, and steady-state binding data fitted using a 1:1 binding model using Biacore S200 Evaluation Software (Cytiva, v. 1.1). […] Representative sensorgrams and fitted dissociation constant (KD) values, depicted as mean ± S.E.M.

A further assay has as its target Grb2^FL. To be noted: isothermal titration calorimetry, shown previously; read-out: ITC KD, Grb2^FL; cited from earlier work. In general terms: In ITC the heat of successive injections is recorded.
Assay [1] concerns PEAK3 pY24 phosphorylation in MCF-10A cells. To be noted: MCF-10A cells treated with inhibitor; cited from earlier work.
Another assay has as its target 14-3-3ɣ. The assay is described as follows: SPR, 14-3-3ɣ binding to immobilised PEAK proteins. Also on record: species or system human. The conditions noted are these: 14-3-3ɣ analyte 0.46–1000 nM, multi-cycle, over immobilised biotinylated PEAK protein; Biacore 8K+, 20 °C; KD only an estimate (bivalent analyte model); N = 3. The method, then:
PEAK proteins and adapters proteins (full length or individual domains) were biotinylated using EZ-Link™ NHS-PEG4-Biotin (Thermo Fisher) at a 1:1 molar ratio (100 µM) for 1 h at room temperature, then excess biotin was removed by buffer exchange using a Zeba™ Spin Desalting Column (Thermo Fisher) into HBS-T buffer (20 mM HEPES pH 7.4, 150 mM NaCl, 1 mM TCEP).
SPR binding studies of PEAK proteins to full length CrkII/Grb2 and sub-domains were performed using a Biacore 8K+ Instrument (Cytiva) and analyzed using Biacore Insight Evaluation Software (v. 3.0.12.15655). […] Biotinylated PEAK proteins (with or without Src phosphorylation; 500 nM in HBS-TP) were immobilized using a biotin CAPture kit (Cytiva) in HBS-TP running buffer at 20 °C. Binding studies and steady-state data analysis were performed as described for CrkII^NSH3 with the inclusion of an additional surface regeneration step (60 s injection of 1 M NaCl) between cycles. For Grb2^FL, Grb2^SH2, CrkII^SH2, CrkII^FL monomer and CrkII^FL dimer, to reduce nonspecific interactions the HBS-TP running buffer was supplemented with additional NaCl to a final concentration of 500 mM.
Binding studies for 14-3-3ɣ were undertaken in the same way in multi cycle mode (8 point, 3-fold serial dilution series, 0.46–1000 nM, 60 s contact time, 300 s dissociation).

The next assay deals with T5, CrkII^NSH3 (Homo sapiens, UniProt P46108).
T5 construct: CrkII^NSH3; UniProt P46108-1, residues 134–191; 8-His tag with TEV protease cleavage site (N); made in house; host or cells: E. coli C41 (DE3)
In words: SPR, CrkII NSH3 binding to immobilised PEAK proteins. The conditions noted are these: read-out: CrkII NSH3 SPR KD; interactor as analyte over biotinylated PEAK protein captured with biotin CAPture kit; Biacore 8K+, HBS-TP, 20 °C; steady-state fit; mean ± SD (N = 2); read-out: CrkII-SH2 SPR KD. The procedure:
(§2) SPR binding studies of PEAK PRM peptides to CrkII^NSH3 were performed using a Biacore S200 Instrument (Cytiva). Purified CrkII^NSH3 was diluted to 5 µg ml^−1 in 10 mM sodium acetate pH 4.0 and amine coupled at 25 °C to a Series S CM5 sensor chip, in HBS-N running buffer (20 mM HEPES pH 7.4, 150 mM NaCl) to a final immobilization level of 1100–1400 response units (RU), followed by surface deactivation using 1 M ethanolamine. A blank activation/deactivation was used for the reference surface. Peptide binding studies were performed at 20 °C in HBS-TP running buffer (20 mM HEPES pH 7.4, 150 mM NaCl, 1 mM TCEP, 0.005% (v/v) Tween-P20). […] Peptide stocks were further diluted to in running buffer to 10 or 20 µM and prepared as a 11-point concentration series (2-fold serial dilution, […] for PEAK PRM peptides, or 20 µM–20 nM for PEAK tandem motif peptides). Samples were injected in a multi-cycle run (flow rate 30 µl min^−1, contact time of 60 s, dissociation 120 s) without regeneration. Sensorgrams were double referenced, and steady-state binding data fitted using a 1:1 binding model using Biacore S200 Evaluation Software (Cytiva, v. 1.1).
(§3) SPR binding studies of PEAK proteins to full length CrkII/Grb2 and sub-domains were performed using a Biacore 8K+ Instrument (Cytiva) and analyzed using Biacore Insight Evaluation Software (v. 3.0.12.15655). […] Binding studies and steady-state data analysis were performed as described for CrkII^NSH3 with the inclusion of an additional surface regeneration step (60 s injection of 1 M NaCl) between cycles.

The next assay addresses T6, CrkII^FL dimer (Homo sapiens, UniProt P46108).
T6 construct: full length CrkII (CrkII^FL; UniProt P46108-1, residues 1–330); 8-His tag with TEV protease cleavage site (N); made in house; host or cells: E. coli C41 (DE3)
In words: SPR, CrkII FL dimer binding to immobilised PEAK proteins. The conditions noted are these: interactor as analyte over biotinylated PEAK protein (biotin CAPture); Biacore 8K+, HBS-TP with 500 mM NaCl, 20 °C; steady-state fit; mean ± SD (N = 2). The procedure: as §2
SPR binding studies of PEAK proteins to full length CrkII/Grb2 and sub-domains were performed using a Biacore 8K+ Instrument (Cytiva) and analyzed using Biacore Insight Evaluation Software (v. 3.0.12.15655). […]

In a further assay the target is T7, CrkII^SH2 (Homo sapiens, UniProt P46108).
T7 construct: CrkII^SH2; UniProt P46108-1, residues 6–120; 8-His tag with TEV protease cleavage site (N); made in house; host or cells: E. coli C41 (DE3)
The assay is described as follows: SPR, CrkII SH2 binding to immobilised PEAK proteins. To be noted: interactor as analyte over biotinylated PEAK protein (biotin CAPture); Biacore 8K+, HBS-TP with 500 mM NaCl, 20 °C; steady-state fit; mean ± S.E.M. (N = 3). The method, then: as §2, §3

These results are taken from PMC10279719 (Nature Communications, 2023).

Bounds are passed on as bounds.

T1 sequence (P63104 whole entry, the tested form may be a part): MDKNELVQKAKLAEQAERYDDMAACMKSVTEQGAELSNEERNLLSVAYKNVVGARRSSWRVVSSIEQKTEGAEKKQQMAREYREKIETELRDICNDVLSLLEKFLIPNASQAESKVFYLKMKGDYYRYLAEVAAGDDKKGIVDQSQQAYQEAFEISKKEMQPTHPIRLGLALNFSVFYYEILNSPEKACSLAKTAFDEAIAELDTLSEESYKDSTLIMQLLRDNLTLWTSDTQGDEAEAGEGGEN
T5 sequence (P46108 134-191): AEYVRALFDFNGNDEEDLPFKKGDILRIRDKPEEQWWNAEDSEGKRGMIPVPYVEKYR
T7 sequence (P46108 6-120): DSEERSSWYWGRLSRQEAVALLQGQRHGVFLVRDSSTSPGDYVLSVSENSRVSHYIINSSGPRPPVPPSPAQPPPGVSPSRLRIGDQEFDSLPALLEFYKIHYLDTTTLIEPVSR
T6 sequence (P46108 whole entry, the tested form may be a part): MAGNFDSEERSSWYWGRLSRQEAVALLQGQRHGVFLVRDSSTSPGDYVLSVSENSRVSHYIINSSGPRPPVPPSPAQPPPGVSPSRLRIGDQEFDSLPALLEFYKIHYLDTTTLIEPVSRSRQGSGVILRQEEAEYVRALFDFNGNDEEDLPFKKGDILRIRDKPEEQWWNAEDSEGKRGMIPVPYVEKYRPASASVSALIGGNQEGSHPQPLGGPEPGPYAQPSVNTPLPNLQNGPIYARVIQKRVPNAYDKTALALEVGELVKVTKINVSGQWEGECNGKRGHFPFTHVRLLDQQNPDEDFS

Regarding `CC[C@H](C)[C@H](NC(=O)[C@H](CCSC)NC(=O)[C@H](CCCCN)NC(=O)[C@H](CCCCN)NC(=O)[C@@H]1CCCN1C(=O)[C@H](CC(C)C)NC(=O)[C@@H]1CCCN1C(=O)[C@@H]1CCCN1C(=O)[C@@H]1CCCN1C(C)=O)C(=O)N[C@H](C(=O)N[C@@H](CCCNC(=N)N)C(=O)N[C@@H](C)C(=O)N[C@@H](CC(N)=O)C(=O)N[C@H](C(=O)N[C@@H](CCC(=O)O)C(=O)N1CCC[C@H]1C(=O)N[C@H](C(=O)N[C@@H](CO)C(=O)N[C@@H](CCCCN)C(=O)N[C@@H](CC(=O)O)C(N)=O)[C@@H](C)CC)[C@@H](C)O)[C@@H](C)CC` (single isomer, unassigned) [PEAK1^tandem], the Kd on 14-3-3σ (Homo sapiens), on 14-3-3η, at 14-3-3γ and at 14-3-3ε was more than 100 µM each time.
With `CC[C@H](C)[C@H](NC(=O)[C@H](CCCCN)NC(=O)[C@H](CCCCN)NC(=O)[C@H](CCC(N)=O)NC(=O)[C@@H]1CCCN1C(=O)[C@H](CC(C)C)NC(=O)[C@@H]1CCCN1C(=O)[C@@H]1CCCN1C(=O)[C@@H]1CCCN1C(C)=O)C(=O)N[C@H](C(=O)N[C@@H](CO)C(=O)N[C@@H](CCCNC(=N)N)C(=O)N[C@@H](C)C(=O)N[C@@H](C)C(=O)N[C@@H](CO)C(=O)N[C@@H](CO)C(=O)N1CCC[C@H]1C(=O)N[C@@H](CC(=O)O)C(=O)NCC(=O)N[C@@H](Cc1ccccc1)C(N)=O)C(C)C` (single isomer, unassigned) [PEAK2^tandem], the Kd at 14-3-3σ (Homo sapiens), on 14-3-3η, at 14-3-3γ and on 14-3-3ε was more than 100 µM in each case.
`CC(=O)N[C@H](C(=O)N[C@@H](Cc1ccc(OP(=O)(O)O)cc1)C(=O)N[C@@H](CO)C(=O)N[C@@H](CC(N)=O)C(=O)N[C@@H](CC(C)C)C(=O)NCC(=O)N[C@@H](CCC(N)=O)C(N)=O)[C@@H](C)O` [SH2-pY peptide]: the Kd on Grb2^FL was 2.6 µM.
As to `Cc1nc(Nc2ncc(C(=O)Nc3c(C)cccc3Cl)s2)cc(N2CCN(CCO)CC2)n1` [dasatanib], the “phosphorylation of PEAK3 at the TYSNL (pY24) site” value in assay [1] was “blocked”.
Take `COc1cc(-c2nn(CCN3CCC(N(C)C)CC3)c3ncnc(N)c23)ccc1NC(=O)OC(C)(C)C` [eCF506]: the “phosphorylation of PEAK3 at the TYSNL (pY24) site” value in assay [1] was “blocked”.
Regarding “PEAK3-FL (+ Src phosphorylation): insect cell PEAK3 (1–473) phosphorylated with recombinant Src kinase”, the Kd on 14-3-3ɣ was less than 1 µM; with CrkII^NSH3 it was 6.84 µM; in the assay with CrkII^FL dimer, 2.18 µM.
Regarding “PEAK3-FL: full length human PEAK3 (1–473) from insect cells, S69 phosphorylated, purified as 14-3-3 complex”, at 14-3-3ɣ, the Kd was less than 1 µM and the “SPR KD, 14-3-3ɣ” value is “bound strongly”. For the same molecule, the Kd with CrkII^NSH3 came to 3.87 µM. In addition, in the assay with CrkII^SH2, the “SPR KD, CrkII-SH2” value is listed as “No binding”.
